Measurements published in PMC10841072 (European journal of medicinal chemistry, 2023).

Experiments:
[1] = target: human D3 receptor over-expressed in CHO-K1 cells (Homo sapiens, UniProt P35462); test: PathHunter β-arrestin recruitment assay, competition with dopamine; assay type: cell-based; conditions: 30 nM (EC80) dopamine, Mean ± SEM, at least three experiments
[2] = target: human D3 expressed in HEK cells (Homo sapiens, UniProt P35462); test: Radioligand binding assay with [125I]IABN, D3R; conditions: for D2R/D3R selectivity, (Ki for D2R)/(Ki for D3R): ratio of Ki values
[3] = target: human D2 (long) expressed in HEK cells (Homo sapiens, UniProt P14416); test: Radioligand binding assay with [125I]IABN, D2R
human D2 (long) expressed in HEK cells, sequence (P14416 whole entry): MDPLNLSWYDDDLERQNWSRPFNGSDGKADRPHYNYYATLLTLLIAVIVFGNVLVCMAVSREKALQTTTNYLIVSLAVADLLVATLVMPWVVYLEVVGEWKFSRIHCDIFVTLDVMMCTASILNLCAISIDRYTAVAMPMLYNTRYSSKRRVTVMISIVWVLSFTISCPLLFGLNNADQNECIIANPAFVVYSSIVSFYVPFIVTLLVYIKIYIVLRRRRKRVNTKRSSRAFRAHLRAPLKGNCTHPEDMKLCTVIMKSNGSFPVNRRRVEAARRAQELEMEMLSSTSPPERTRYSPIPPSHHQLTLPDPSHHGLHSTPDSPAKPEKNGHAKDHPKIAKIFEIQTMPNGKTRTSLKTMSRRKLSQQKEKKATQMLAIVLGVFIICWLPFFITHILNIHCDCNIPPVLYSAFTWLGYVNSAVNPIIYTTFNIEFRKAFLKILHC

human D3 receptor over-expressed in CHO-K1 cells, sequence (P35462 whole entry): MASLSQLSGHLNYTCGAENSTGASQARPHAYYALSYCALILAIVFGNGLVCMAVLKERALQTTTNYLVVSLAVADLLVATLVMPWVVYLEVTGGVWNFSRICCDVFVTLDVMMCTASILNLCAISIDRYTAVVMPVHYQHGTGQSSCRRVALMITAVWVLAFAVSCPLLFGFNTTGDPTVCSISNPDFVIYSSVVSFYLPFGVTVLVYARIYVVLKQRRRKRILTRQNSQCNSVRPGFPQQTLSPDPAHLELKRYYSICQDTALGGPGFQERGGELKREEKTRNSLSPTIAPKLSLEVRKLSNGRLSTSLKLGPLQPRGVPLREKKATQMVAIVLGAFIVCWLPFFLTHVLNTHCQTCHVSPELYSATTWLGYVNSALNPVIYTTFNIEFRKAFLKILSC
human D3 expressed in HEK cells, sequence (P35462 whole entry): as above

C=CCN1C[C@H](OC(=O)Nc2ccc(-c3ccccn3)cc2)C[C@H]1CNC(=O)c1cc(CCCF)cc(OC)c1OC [Compound 37k, (3R,5S)-1-allyl-5-((5-(3-fluoropropyl)-2,3-dimethoxybenzamido)methyl)pyrrolidin-3-yl (4-(pyridin-2-yl)phenyl)carbamate]
IC50 in β-arrestin recruitment assay (inhibiting dopamine) [1]: much lower potency

C=CCN1C[C@@H](OC(=O)Nc2ccc(-c3ccsc3)cc2)C[C@H]1CNC(=O)c1cc(CCCF)cc(OC)c1OC [Compound 41, (3S,5S)-1-allyl-5-((5-(3-fluoropropyl)-2,3-dimethoxybenzamido)methyl)pyrrolidin-3-yl (4-(thiophen-3-yl)phenyl)carbamate]
D2R/D3R selectivity, (Ki for D2R)/(Ki for D3R) [2]: modest

CCN1C[C@H](OC(=O)Nc2ccc(-c3ccsc3)cc2)C[C@H]1CNC(=O)c1cc(CCCF)cc(OC)c1OC [Compound 47, (3R,5S)-1-ethyl-5-((5-(3-fluoropropyl)-2,3-dimethoxybenzamido)methyl)pyrrolidin-3-yl (4-(thiophen-3-yl)phenyl)carbamate]
IC50 in β-arrestin recruitment assay (inhibiting dopamine) [1]: much lower potency

C=CCN1C[C@H](OC(=O)Nc2ccoc2)C[C@H]1CNC(=O)c1cc(CCCF)cc(OC)c1OC [Compound 37h, (3R,5S)-1-allyl-5-((5-(3-fluoropropyl)-2,3-dimethoxybenzamido)methyl)pyrrolidin-3-yl furan-3-ylcarbamate]
D2R/D3R selectivity, (Ki for D2R)/(Ki for D3R) [2]: higher affinity for D2R versus D3R

C=CCN1C[C@@H](OCCCN)C[C@H]1CNC(=O)c1cc(CCCF)cc(OC)c1OC [Compound 40, N-(((2S,4S)-1-allyl-4-(3-aminopropoxy)pyrrolidin-2-yl)methyl)-5-(3-fluoropropyl)-2,3-dimethoxybenzamide]
Ki [3]: 16.9 ± 0.9 nM

C=CCN1C[C@H](OC(=O)Nc2ccc(-c3ccsc3)cc2)C[C@H]1CNC(=O)c1cc(CCCF)cc(OC)c1OC [Compound 37l, (3R,5S)-1-allyl-5-((5-(3-fluoropropyl)-2,3-dimethoxybenzamido)methyl)pyrrolidin-3-yl (4-(thiophen-3-yl)phenyl)carbamate]
IC50 in β-arrestin recruitment assay (inhibiting dopamine) [1]: much lower potency

C=CCN1C[C@H](OCCN)C[C@H]1CNC(=O)c1cc(CCCF)cc(OC)c1OC [Compound 35a, N-(((2S,4R)-1-allyl-4-(2-aminoethoxy)pyrrolidin-2-yl)methyl)-5-(3-fluoropropyl)-2,3-dimethoxybenzamide]
higher affinity for D3R versus D2R [2]: 11 fold
